The record followed here is patent EP0162545A2, “Enhanced bioconversion processes” (BETZ EUROPE, INC., priority 1984, dated 1985).

For one test, the system named is Klebsiella. Briefly: Dissolved oxygen removal in nutrient broth. Conditions: 5 hours. The format is cell-based. The procedure:
Experiments to look at the above conclusions in depth were performed. In these experiments, cultures of Klebsiella were challenged with various concentrations of BNS and the effects on C02 evolution from glucose, viability, TOC (Total Organic Carbon), TIC (Total Inorganic Carbon) production, removal, and DO (Dissolved Oxygen) removal were determined. Concentrations of BNS from 0.05 to 100 µg/mL were used. […] CO2 evolution decreased after 5 gg/mL. […] The viability dropped off after that with 99% inhibition at concentrations somewhere between 10 - 20 µg/mL. Organic carbon removal gave the most puzzling pattern. […] CO2 was produced, however, as reflected by the C02 blowoff experiments and the TIC data. The organic carbon being oxidized (removed) must have been cancelled out by an organic carbon addition caused by limited bacterial lysis. This phenomenon was investigated again. […]
The experiments coordinating the measurements of C02 evolution, TOC reduction, viable count, and dissolved oxygen (DO) reduction were performed as follows: C02 evolution by Klebsiella was measured as described previously using a narrowed set of BNS concentrations. […] These cells were used to inoculate 19 mL quantities of fresh nutrient broth (1 mL inoculum) in baffled shake flasks. […]

A further test relates to E. coli K12 ATCC 25404. Briefly: Continuous culture (chemostat) biomass yield. The format is cell-based, Escherichia coli. Conditions: for inhibition of growth at 5 ppm / inhibition of growth at 2 ppm / inhibition of growth at 1 ppm: Escherichia coli, read-out: % From Control. As to the method: Biomass determinations were by Millipore Filtration using Millipore type H.A. 0.45 µ filters. Samples were centrifuged @ 15,000 x for 10 min., supernatant was filtered through a dried and preweighed filter. The centrifuged pellet was then vortexed in 2 mL of D.I. water and filtered also. Samples were then dried overnight @ 105°C and re-weighed. Biomass was the weight of the dried filter less the tared filter weight.
Glucose determinations were carried out on the centrifuged reactor sample supernatants using glucose enzymatic assay (hexokinase and glucose 6-phosphate dehydrogenase) UV-15 Sigma Chemical Co., St. Louis, MO. (Assay set-up pamphlet accompanies kit). Spectrophotometric measurements were run on a Zeiss PM-6 Spektralphotometer, Carl Zeiss, 7082 Oberkochen, West Germany.
Continuous culture medium was composed of 5 g/1 glucose, 40 mL/1 25 X VBE, and 2.5 mL/1 trace mixture. Bulk medium composed of deionized H20 plus 25X VBE was steam sterilized for 45 min. @ 121°C. Trace mix was autoclaved separately and added aseptically. Glucose was filter sterilized and added last (aseptically).
Bioflo Model C32 Chemostat units (bioreactors) , New Brunswick Scientific, Edison NJ, with a working volume of 1400 mL were utilized for the continuous culture experimentation. pH control on the systems was maintained by Model 5997-20 Horizon pH Controllers. Ingold Sterilizable pH Electrodes, Type 465-35-K9, Andover, MA, were sterilized in place before each run. pH adjustment was by controller addition of sterile 2N NaOH upon demand.
Sterile chemostats vessels were filled to working volume with media seeded with 10 mL of 48 hr. E. coli K12 ATCC 25404 culture grown up overnight in nutrient broth (BBL, Cockeysville, MD) @ 37°C. Reactors were run for 72 hours in the batch mode @ 37°C, and then put into continuous flow. The reactors were run for a minimum of five reactor turnovers before initial sampling to insure a steady state. Sampling was then conducted at a maximum of once/reactor turnover, with a minimum number of 11 reactor turnovers per chemostat run. Both control and BNS containing chemostats were stripped, cleaned and the E. coli culture reestablished (as above) each time before either the BNS concentration or the dilution rate was increased. Eleven reactor turnovers is equivalent to 3.5 days at the highest dilution rate used (minimum time for a chemostat run). Uncoupler Addition to Continuous Culture
BNS stock was composed of 10% BNS, 5% Triton X-114 and 85% carbitol acetate. BNS was diluted in deionized water to the appropriate 10X concentration desired. Breakdown kinetics were measured in a deionized H20/BNS system by spectrophotometric measurement at 320 nm and a BNS half life was determined to be 7 hours. Continuous and separate pumping of uncoupler was by a Masterflex 7552-10 peristalic pump (Cole Parmer, Chicago, IL) through silicon tubing lines into the bioreactor. Feed flow was split 90% organic feed, 10% BNS feed for total flow. New uncoupler feed was made up daily from the previously mentioned stock, since there was only 10% of the original BNS concentration left before the new daily solution of BNS feed was begun. BNS dose of 1, 2 and 5 ppm was based on the total bulk feed. Reservoir solutions were mixed constantly on a Fisher versamix magnetic stir plate at a speed of 0.4/1.0 to prevent settling out of chemical.
Chemostat system parameters were set at pH - 7.0, temper, ature 37°C, aeration 2.0 standard litres per minute (SLPM) and agitation at 300 rpm for all experimentation.
Daily checks were made on system for pH, media flow, NaOH consumption, BNS flow, temperature; agitation speed and aeration rate. Mixed liquor glucose and gravimetric biomass determinations were performed at least 5 times per week. Periodic checks were also made on the organic strength of the influent medium, depending on the frequency of new media make-up.

The structures appear in SMILES notation. Like-named read-outs stand apart in the source and are kept apart here.

For the molecule `O=[N+]([O-])C(Br)=Cc1ccccc1` [BNS, beta-bromo-beta-nitrostyrene], the “concentrations at which oxygen was consumed at levels approaching control values” in the test on Klebsiella is on record as “up to 2 ppm”. Also, the “Biomass Yield” value is listed as 0.268 g cells/g substrate with E. coli K12 ATCC 25404 (1.0 ppm BNS, Dilution Rate 0.068 hr.^-1); 0.276 g cells/g substrate with E. coli K12 ATCC 25404 (1.0 ppm BNS, Dilution Rate 0.086 hr.^-1); 0.324 g cells/g substrate in the test with E. coli K12 ATCC 25404 (1.0 ppm BNS, Dilution Rate 0.132 hr.^-1); 0.273 g cells/g substrate in the test on E. coli K12 ATCC 25404 (2.0 ppm BNS, Dilution Rate 0.066 hr.^-1); 0.241 g cells/g substrate in the test with E. coli K12 ATCC 25404 (2.0 ppm BNS, Dilution Rate 0.090 hr.^-1); 0.275 g cells/g substrate in the test on E. coli K12 ATCC 25404 (2.0 ppm BNS, Dilution Rate 0.130 hr.^-1). Moreover, the “Biomass Yield” value with E. coli K12 ATCC 25404 (5.0 ppm BNS, Dilution Rate 0.070 hr.^-1) turned out to be 0.287 g cells/g substrate; in the test with E. coli K12 ATCC 25404 (5.0 ppm BNS, Dilution Rate 0.090 hr.^-1), 0.237 g cells/g substrate; in the test on E. coli K12 ATCC 25404 (5.0 ppm BNS, Dilution Rate 0.131 hr.^-1), 0.298 g cells/g substrate. Also, the inhibition of growth at 5 ppm worked out at 9.5% in the test on E. coli K12 ATCC 25404 (ATCC25404, 0.07 h, 5.0 ppm BNS, Dilution Rate 0.070 hr.^-1); 27.3% in the test with E. coli K12 ATCC 25404 (ATCC25404, 0.09 h, 5.0 ppm BNS, Dilution Rate 0.090 hr.^-1); 11.5% in the test on E. coli K12 ATCC 25404 (ATCC25404, 5.0 ppm BNS, Dilution Rate 0.131 hr.^-1). Moreover, the inhibition of growth at 2 ppm with E. coli K12 ATCC 25404 (ATCC25404, 0.09 h, 2.0 ppm BNS, Dilution Rate 0.090 hr.^-1) turned out to be 26.1%; in the test with E. coli K12 ATCC 25404 (ATCC25404, 0.13 h, 2.0 ppm BNS, Dilution Rate 0.130 hr.^-1), 18.3%; in the test with E. coli K12 ATCC 25404 (ATCC25404, 2.0 ppm BNS, Dilution Rate 0.066 hr.^-1) it was 13.3%. The inhibition of growth at 1 ppm in the test with E. coli K12 ATCC 25404 (ATCC25404, 1.0 ppm BNS, Dilution Rate 0.068 hr.^-1) is 15.2%; in the test with E. coli K12 ATCC 25404 (ATCC25404, 1.0 ppm BNS, Dilution Rate 0.086 hr.^-1), 15%; in the test with E. coli K12 ATCC 25404 (ATCC25404, 1.0 ppm BNS, Dilution Rate 0.132 hr.^-1), 3.9%.
